Earlier results on two compounds are cited in patent publication US9662296B2, “Pharmaceutical composition comprising bicarbonate salt, and use thereof as a medicament in the treatment and/or prevention of urinary lithiases and related diseases” (ADVICENNE, priority 2010, dated 2017).

The conditions of the series: high doses (30 to 40 grams per day).

The structures appear in SMILES notation.

Take `O=C([O-])O.[K+]` [potassium bicarbonate]: the adverse manifestations result is reported as “manifestations of metabolic alkalosis or digestive disorders, mainly diarrhoea”. As to `O=C([O-])O.[Na+]` [sodium bicarbonate], the adverse manifestations result is “manifestations of metabolic alkalosis or digestive disorders, mainly diarrhoea”.
